Measured values taken from patent US10350315B2, “Quinoline-3-carboxamide compounds and their use in diagnosis” (Westfaelische Wihelms-Universitaet Muenster, priority 2014, dated 2019).

Assays:
S100A9 [1] = target: T1, S100A9 (Homo sapiens, UniProt P06702); assay: TLR4-S100A9 ELISA: blocking of S100A9 binding to TLR4/MD2; details: S100A9 2 μg/ml, 100 μM CES271-Cy5.5, two hours at room temperature
T1 sequence (P06702 1-114): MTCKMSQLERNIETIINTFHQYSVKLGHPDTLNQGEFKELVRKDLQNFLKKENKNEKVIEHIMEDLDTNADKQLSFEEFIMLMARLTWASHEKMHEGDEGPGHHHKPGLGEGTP
Method: FIG. 5: ELISA-based blocking study showing binding of S100A9 protein to TLR4/MD2 in the presence or absence of quinoline-3-carboxamide compounds covalently linked to a label, in this case Cy5.5-CES271.
Cy5.5-CES271 was successfully synthesized as described in the previous example. Studies were then conducted to verify that Cy5.5-CES271 maintained strong binding affinity for S100A9. In this regard, a specific ELISA (Enyme-linked Immunosorbent Assay) was developed to analyse S100A9 binding to TLR4. In this newly developed assay, the binding of S100A9 to TLR4 can be measured.
Briefly, TLR4/MD2 (3146-TM-050/CF, R&D Systems) was coupled to the wells of a 96-well plate and served as capturing molecule. After blocking of the unspecific binding sites by PBS/5% skim milk powder, plates were washed three times. S100A9 protein was added at a concentration of 2 μg/ml in the presence or absence of 100 μM CES271-Cy5.5 and incubated for two hours at room temperature. Unbound S100 protein was removed by washing the plates for three times, followed by the addition of a primary anti-S100A9-antibody (1 μg/ml, polyclonal, rabbit). After a washing step, the secondary anti-rabbit-IgG-antibody coupled to HRP (1 μg/ml, Cell Signalling) was added. TMB was used as substrate for HRP to quantify binding efficiency by absorbance readings at 450 nm in an ELISA reader (Anthos Mikrosysteme).

S100A9 [2] = target: T1, S100A9; assay: Binding constant to coated S100A9 by fluorimetric measurement (one site saturation model); details: human S100A9 homodimer coated, 1 h at 4° C.
Method: (§1) FIG. 15: Binding of Cy5.5-CES271 to human and murine S100A9. Estimation of the binding constant of Cy5.5-CES271 to human (A) and murine (B) S100A9. The constant was calculated using the one site saturation regression model. Each dot represents the mean value of four independent experiments.
(§2) The binding constant of Cy5.5-CES271 to murine and human S100A9 was determined by fluorimetric measurements. 0.3788 μM S100A9 (5 μg ml^−1 of homodimer S100A9) solved in 50 μl PBS was coated to the bottom of a 96-well plate and served as capturing molecule. For each S100A9 coated well a control well was used with 50 μl PBS alone. After a washing step, unspecific binding sites were blocked by PBS/5% skim milk powder. Cy5.5-CES271 was added at increasing concentrations. After 1 h incubation at 4° C., the supernatants were removed and the fluorescence intensity was measured with a fluorimeter. Non-linear regression analysis was performed with a one site saturation model, to calculate the binding constant of Cy5.5-CES271 to either murine or human S100A9. […] A strong binding affinity of the tracer to S100A9 could be observed that is not affected by the attachment of Cy5.5 to CES271.

murine S100A9 = target: T2, murine S100A9 (Mus musculus, UniProt P31725); assay: as above; details: murine S100A9 homodimer coated, 1 h at 4° C.
T2 sequence (P31725 1-113): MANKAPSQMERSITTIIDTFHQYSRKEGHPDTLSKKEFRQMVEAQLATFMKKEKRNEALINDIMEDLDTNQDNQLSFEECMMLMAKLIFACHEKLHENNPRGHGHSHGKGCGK
Method: as §1, §2

[3] = Biodistribution of Cy5.5-CES271 in healthy Balb/c mice (fluorescence intensity in organs); format: in vivo
Method: FIG. 16: Biodistribution of Cy5.5-CES271 in healthy Balb/c mice. The tracer was intravenously injected at a dose of 2 nmol per mouse.
The biodistribution of Cy5.5-CES271 and [^99mTc]FEB054 injected to healthy Balb/c mice was analysed by the measurement of fluorescence intensity in various organs. […] The tracer was injected at a dose of 2 nmol per mouse. […] This kinetics, that is different to previously published antibody based tracer anti-S100A9-Cy5.5^7 kinetics favors Cy5.5-CES271 for imaging of organs neighboring the liver like the lung or the heart.

S100A9 [4] = target: T3, S100A9 (Mus musculus, UniProt P31725); assay: Myocardial infarction mouse model, FRI of the explanted heart; format: in vivo, C57BI/6 mouse; details: one day post LAD occlusion, two hours after i.v. injection of 2 nmol
T3 construct: from tissue; host or cells: living mice (inflamed ear, joints) and explanted mouse heart, aorta and lungs
T3 sequence (P31725 2-113 limits assumed): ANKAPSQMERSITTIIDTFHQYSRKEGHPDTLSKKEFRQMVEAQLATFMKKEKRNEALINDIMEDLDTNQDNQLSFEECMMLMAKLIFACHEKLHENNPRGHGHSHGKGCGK
Method: FIG. 7: Accumulation of Cy5.5-CES271 in a mouse model of myocardial infarction. One day post occlusion of the LAD in a C57BI/6 mouse: FRI of the explanted heart (longitudinal mid-infarction cut) two hours after i.v. injection of 2 nmol Cy5.5-CES271. […] Furthermore, absence of S100A9 in the remote myocardium (RM) is accompanied by the lack of Cy5.5-CES271.
Myocardial infarction was induced by opening the chest of a mouse and transient ligation of the left coronary artery for 60 minutes. The ischemic event triggers acute inflammatory response to the tissue injury in the first hours/days followed by a remodeling process (involving less intense inflammatory processes) after about one week. FRI was performed one day after the surgical intervention to assess the intense acute inflammatory response and the images in FIG. 7 were acquired two hours after injection of 2 nmol Cy5.5-CES-271. […] FRI of the explanted heart (longitudinal mid-infarction cut) two hours after i.v. injection of 2 nmol Cy5.5-CES271 is shown.

[5] = 2 nmol per mouse i.v., 1 and 3 h after injection
[6] = between 1 h and 3 h post injection, 2 nmol i.v.

What does the source list for “3-ethyl-2((1E,3E,5E)-5-(3-(1-(5-ethyl-4-hydroxy-1-methyl-2-oxo-1,2-dihydroquinolin-3-yl)-1,15-dioxo-2-phenyl-5,8,11-trioxa-2,14-diazanonadecan-19-yl)-1,1-dimethyl-6,8-disulfonato-1H-benzo[e]indol-2(3H)-ylidene)penta-1,3-dien-1-yl)-1,1-dimethyl-1H-benzo[e]indol-3-ium-6,8-disulfonate [Cy5.5-CES271]”?
Blocking of binding of S100A9 to TLR4/MD2 (decrease of ELISA signal, absorbance 450 nm) (S100A9 [1]): markedly block; Kd (S100A9 [2]): 2060 nM; Kd (murine S100A9): 2660 nM; Route of elimination [3, 5]: mainly driven by renal excretion; Tissue availability [3, 5]: good tissue availability; Tracer concentration in heart, spleen, muscle, brain ([3]; 1 h compared with 3 h post injection, 2 nmol i.v.): at the same level; Tracer concentration in kidney, liver and lung ([3]; 3 h vs 1 h post injection, 2 nmol i.v.): higher tracer concentrations; Change of tracer concentration in the blood [3, 6]: decrease; Change of tracer concentration in the urine [3, 6]: increases significantly; Kinetics compared to antibody based tracers ([3]; mouse, in vivo): much faster kinetics; Accumulation in the myocardial infarction (MI) (S100A9 [4]): accumulates in the myocardial infarction; Accumulation in the remote myocardium (RM) (S100A9 [4]): lack of Cy5.5-CES271 accumulation
